Measured values: ChEMBL document CHEMBL5465560, “Selectivity Literature for EUbOPEN Chemogenomic Library” (2024)

Experiments:
[1] = target: T1, Serine/threonine-protein kinase LATS2 (Homo sapiens) (UniProt Q9NRM7); test: Selectivity interaction (KinomeScan (DiscoverX)) EUB0000666a LATS2; settings: at 10 µM
T1 sequence (whole entry): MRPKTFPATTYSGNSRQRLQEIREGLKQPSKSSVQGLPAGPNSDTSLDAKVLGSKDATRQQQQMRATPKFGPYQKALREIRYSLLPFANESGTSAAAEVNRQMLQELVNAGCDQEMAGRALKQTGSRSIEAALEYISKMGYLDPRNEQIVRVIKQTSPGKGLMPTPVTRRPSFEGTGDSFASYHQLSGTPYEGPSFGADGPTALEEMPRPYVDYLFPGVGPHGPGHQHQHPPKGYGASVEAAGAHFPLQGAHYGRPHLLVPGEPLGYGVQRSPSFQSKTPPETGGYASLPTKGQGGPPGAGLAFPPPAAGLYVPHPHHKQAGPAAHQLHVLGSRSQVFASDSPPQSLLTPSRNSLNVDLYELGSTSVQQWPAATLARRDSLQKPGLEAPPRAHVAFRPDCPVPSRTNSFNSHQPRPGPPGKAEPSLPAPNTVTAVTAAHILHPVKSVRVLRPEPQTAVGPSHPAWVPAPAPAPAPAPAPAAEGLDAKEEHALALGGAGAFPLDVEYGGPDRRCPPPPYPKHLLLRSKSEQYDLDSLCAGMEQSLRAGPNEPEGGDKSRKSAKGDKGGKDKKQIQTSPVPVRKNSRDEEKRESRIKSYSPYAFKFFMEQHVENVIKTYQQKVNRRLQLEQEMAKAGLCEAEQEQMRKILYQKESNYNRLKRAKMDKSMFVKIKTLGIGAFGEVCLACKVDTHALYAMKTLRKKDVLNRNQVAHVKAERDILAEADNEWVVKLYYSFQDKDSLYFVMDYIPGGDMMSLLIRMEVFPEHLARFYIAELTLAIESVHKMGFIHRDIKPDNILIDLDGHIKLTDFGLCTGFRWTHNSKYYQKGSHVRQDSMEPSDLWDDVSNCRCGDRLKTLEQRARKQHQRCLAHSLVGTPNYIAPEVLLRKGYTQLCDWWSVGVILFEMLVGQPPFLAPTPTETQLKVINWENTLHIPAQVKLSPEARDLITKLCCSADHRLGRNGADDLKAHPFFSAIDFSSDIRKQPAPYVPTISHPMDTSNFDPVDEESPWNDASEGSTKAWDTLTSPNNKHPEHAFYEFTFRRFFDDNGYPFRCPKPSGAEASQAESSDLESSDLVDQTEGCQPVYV

[2] = target: T2, Inhibitor of nuclear factor kappa-B kinase subunit epsilon (Homo sapiens) (UniProt Q14164); test: Selectivity interaction (KinomeScan (DiscoverX)) EUB0001079a IKBKE; settings: at 1 µM
T2 sequence (whole entry): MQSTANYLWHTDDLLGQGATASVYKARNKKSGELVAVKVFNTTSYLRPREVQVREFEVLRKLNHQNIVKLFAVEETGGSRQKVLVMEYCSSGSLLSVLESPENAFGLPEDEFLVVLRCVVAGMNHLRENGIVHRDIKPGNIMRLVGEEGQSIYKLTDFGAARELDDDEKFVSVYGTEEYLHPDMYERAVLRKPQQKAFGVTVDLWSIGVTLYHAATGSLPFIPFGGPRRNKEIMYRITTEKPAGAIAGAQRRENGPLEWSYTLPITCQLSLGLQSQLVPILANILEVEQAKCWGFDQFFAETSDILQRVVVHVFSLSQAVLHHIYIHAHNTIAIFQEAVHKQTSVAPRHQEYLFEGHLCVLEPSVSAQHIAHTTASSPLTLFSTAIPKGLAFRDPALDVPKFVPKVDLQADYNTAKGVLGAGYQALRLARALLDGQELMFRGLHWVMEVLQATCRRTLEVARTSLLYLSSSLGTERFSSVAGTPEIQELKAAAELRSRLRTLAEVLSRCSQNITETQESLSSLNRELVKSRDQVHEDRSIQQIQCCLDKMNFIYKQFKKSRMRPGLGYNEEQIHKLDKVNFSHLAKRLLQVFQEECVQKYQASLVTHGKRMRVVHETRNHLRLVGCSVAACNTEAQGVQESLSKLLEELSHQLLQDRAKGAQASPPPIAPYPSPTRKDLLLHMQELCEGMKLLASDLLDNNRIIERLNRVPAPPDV

[3] = target: Serine/threonine-protein kinase Chk2 (Homo sapiens) (UniProt O96017); test: Selectivity interaction (ActivX KiNativ screen (kinase selectivity in THP-1 cell lysates)) EUB0000639a CHEK2; format: subcellular; settings: lysate, at 1 µM
[4] = target: T3, Mitogen-activated protein kinase 13 (Homo sapiens) (UniProt O15264); test: Selectivity interaction (KinomeScan (DiscoverX)) EUB0000092b MAPK13; settings: at 10 µM
T3 sequence (whole entry): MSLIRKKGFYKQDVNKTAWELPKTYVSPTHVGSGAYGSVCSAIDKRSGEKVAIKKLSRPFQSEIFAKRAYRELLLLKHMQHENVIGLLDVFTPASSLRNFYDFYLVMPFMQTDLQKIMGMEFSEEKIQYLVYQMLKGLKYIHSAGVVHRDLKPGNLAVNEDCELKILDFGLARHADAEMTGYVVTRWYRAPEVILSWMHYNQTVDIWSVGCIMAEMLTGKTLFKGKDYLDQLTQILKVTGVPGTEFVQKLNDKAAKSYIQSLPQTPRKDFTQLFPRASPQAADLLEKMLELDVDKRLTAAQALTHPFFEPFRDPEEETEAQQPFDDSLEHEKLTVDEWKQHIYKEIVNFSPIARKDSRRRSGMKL

[5] = target: Tyrosine-protein kinase JAK1 (Homo sapiens, UniProt P23458); settings: at 10 µM
[6] = target: Mitogen-activated protein kinase 10 (Homo sapiens, UniProt P53779); test: Selectivity interaction (LanthaScreen Eu Kinase Binding Assay) EUB0001632a MAPK10; settings: at 10 µM
Sequence of Mitogen-activated protein kinase 10 (P53779 whole entry): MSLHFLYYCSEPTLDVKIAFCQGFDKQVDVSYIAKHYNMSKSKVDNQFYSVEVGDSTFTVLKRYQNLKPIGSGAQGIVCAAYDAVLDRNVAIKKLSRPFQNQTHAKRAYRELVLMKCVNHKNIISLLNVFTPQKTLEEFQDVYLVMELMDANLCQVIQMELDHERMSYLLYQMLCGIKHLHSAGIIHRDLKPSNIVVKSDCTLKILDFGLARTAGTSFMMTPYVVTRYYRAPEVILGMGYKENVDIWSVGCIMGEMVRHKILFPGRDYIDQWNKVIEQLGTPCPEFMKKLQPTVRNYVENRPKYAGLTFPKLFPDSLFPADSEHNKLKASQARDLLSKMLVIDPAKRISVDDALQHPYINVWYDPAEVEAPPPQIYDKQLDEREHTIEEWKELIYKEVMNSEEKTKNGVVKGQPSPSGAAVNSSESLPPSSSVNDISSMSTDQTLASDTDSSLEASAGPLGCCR

Sequence of Serine/threonine-protein kinase Chk2 (Homo sapiens) (O96017 whole entry): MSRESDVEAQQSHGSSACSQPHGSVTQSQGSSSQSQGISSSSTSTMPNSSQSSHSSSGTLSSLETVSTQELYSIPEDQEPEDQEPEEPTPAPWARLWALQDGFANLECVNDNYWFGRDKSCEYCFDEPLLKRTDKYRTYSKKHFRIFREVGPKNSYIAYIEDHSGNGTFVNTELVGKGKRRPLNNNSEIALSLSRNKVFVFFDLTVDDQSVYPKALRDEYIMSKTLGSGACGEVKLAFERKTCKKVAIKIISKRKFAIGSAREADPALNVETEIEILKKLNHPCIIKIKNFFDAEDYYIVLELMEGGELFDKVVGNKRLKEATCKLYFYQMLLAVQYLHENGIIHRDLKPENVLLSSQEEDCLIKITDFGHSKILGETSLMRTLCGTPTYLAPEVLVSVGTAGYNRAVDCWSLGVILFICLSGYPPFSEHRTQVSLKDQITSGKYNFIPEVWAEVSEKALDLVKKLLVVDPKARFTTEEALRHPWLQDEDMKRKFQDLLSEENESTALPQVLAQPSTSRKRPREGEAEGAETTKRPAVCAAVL
Sequence of Tyrosine-protein kinase JAK1 (P23458 whole entry): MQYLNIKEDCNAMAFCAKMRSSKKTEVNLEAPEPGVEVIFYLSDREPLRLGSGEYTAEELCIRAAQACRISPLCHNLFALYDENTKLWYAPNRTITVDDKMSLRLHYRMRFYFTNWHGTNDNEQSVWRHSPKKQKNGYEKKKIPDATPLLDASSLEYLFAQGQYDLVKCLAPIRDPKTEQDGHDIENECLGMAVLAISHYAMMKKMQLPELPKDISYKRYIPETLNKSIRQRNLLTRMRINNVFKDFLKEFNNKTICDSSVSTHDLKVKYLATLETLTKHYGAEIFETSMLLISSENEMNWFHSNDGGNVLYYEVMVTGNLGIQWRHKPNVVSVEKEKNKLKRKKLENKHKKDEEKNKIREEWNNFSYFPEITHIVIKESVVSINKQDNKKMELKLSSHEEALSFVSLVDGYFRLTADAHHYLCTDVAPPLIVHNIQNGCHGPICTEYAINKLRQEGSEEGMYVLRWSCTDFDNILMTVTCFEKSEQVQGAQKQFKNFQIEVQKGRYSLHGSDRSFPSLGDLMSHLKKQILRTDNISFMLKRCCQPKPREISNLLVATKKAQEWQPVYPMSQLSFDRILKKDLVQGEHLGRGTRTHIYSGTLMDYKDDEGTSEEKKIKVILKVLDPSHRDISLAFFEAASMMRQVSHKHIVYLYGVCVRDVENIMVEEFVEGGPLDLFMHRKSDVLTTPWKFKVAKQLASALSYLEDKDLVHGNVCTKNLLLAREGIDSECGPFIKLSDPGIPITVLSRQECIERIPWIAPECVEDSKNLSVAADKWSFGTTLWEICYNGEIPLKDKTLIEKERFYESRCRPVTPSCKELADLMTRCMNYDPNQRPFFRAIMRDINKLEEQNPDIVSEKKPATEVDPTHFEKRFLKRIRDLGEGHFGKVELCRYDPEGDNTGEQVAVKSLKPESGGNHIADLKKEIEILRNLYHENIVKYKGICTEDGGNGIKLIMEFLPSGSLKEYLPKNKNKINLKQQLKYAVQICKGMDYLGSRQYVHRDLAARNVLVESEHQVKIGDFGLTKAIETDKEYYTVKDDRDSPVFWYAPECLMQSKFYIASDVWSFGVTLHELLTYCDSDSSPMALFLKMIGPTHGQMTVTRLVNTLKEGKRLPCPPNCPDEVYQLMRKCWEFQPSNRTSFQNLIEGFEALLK

O=C(NOC[C@H](O)CO)c1ccc(F)c(F)c1Nc1ccc(I)cc1F
% of control [1]: 74%

Nc1cnc(N2CCc3cc(S(=O)(=O)Nc4c(F)cc(Cl)cc4F)cc(N4CCCC4=O)c32)nc1 [TP-020n]
% of control [2]: 95%

CC[C@@H]1[C@H](F)C(=O)N[C@@H]1COc1nccc2cc(C(N)=O)c(OC)cc12 [ZIMLOVISERTIB]
% of inhibition [3]: 22.6%

CCC(=O)N1CCN(c2ccc(-n3c(=O)ccc4cnc5ccc(-c6cnc7ccccc7c6)cc5c43)cc2C(F)(F)F)CC1
% of control [4]: 39%

Cc1cc([C@@H](C)Nc2ccccc2C(=O)O)c2nc(N3CCOCC3)cc(=O)n2c1 [AZD-6482]
% of control [5]: 100%

Cn1cc(-n2cnc3c(NCc4nc5cc(Cl)c(Cl)cc5[nH]4)nc(N4CCOCC4)nc32)cn1
% of inhibition [6]: -2.22%
